According to US10004678B2, “Anti-dandruff compositions, and methods of use thereof” (LUCAS MEYER COSMETICS CANADA INC., priority 2013, dated 2018):

How the values were obtained:
Type in all cases: cell-based
Settings in all cases: w/v concentration, 0.25% is 2.5 g (dry weight)/L
[1] = system: M. globosa (strain IP 2387.96, Pasteur Institute); test: Malassezia species growth inhibition (MIC), M. globosa
Procedure: (§1) Determination of the effectiveness of the solution prepared as described in Example 1 on 3 different Malassezia species was determined by measuring the lowest concentration of a molecule for which there is no visible growth of the microorganism strain (MIC). The Malassezia species used were M. furfur (strain 1634.86, Pasteur Institute), M. globose (strain IP 2387.96, Pasteur Institute), and M. restricta (strain 7877, Centralbureau voor Schimmerlcultures). Results are presented as a w/v concentration—i.e., 0.04% is 0.4 g/L; 0.078% is 0.78 g/L, 0.156% is 1.56 g/L and 0.25% is 2.5 g (dry weight)/L.

[2] = system: M. furfur (strain 1634.86, Pasteur Institute); test: Malassezia species growth inhibition (MIC), M. furfur
Procedure: as §1

[3] = system: M. restricta (strain 7877, Centralbureau voor Schimmerlcultures); test: Malassezia species growth inhibition (MIC), M. restricta
Procedure: as §1

Compound	MIC (lowest concentration with no visible growth) [1] [%]	MIC (lowest concentration with no visible growth) [2] [%]	MIC (lowest concentration with no visible growth) [3] [%]
Cc1cc(CC(C)CC(C)(C)C)n(O)c(=O)c1.NCCO (stereo not drawn) [Piroctone olamine]	0.156	0.078	0.156
S=[Se]=S [Selenium disulfide]	0.04	0.04	0.04
